What was measured:
[1] = Growth promotion in chicks at 25 g/T, Example X (Table IV); assay type: in vivo, broiler cross chicks
From the text: (§1) This example compares growth promotion activity of the product of Example I with other growth promotants at a concentration of 25 g/T in the Basal Ration described in Example VII. The other growth promotants include the product described in Example I of U.S. Pat. No. 3,542,784 -- Burch and quinoxaline-1,4-dioxide. Day old broiler cross chicks were weight equalized into groups of eight chicks each, and four replicates of eight chicks each were fed the experimental rations over a 4 week period.

Salmonella cholerasuis = test: Bactericide test, Salmonella cholerasuis (agar streak plate); assay type: cell-based
From the text: (§2) Test formulations were examined for bactericidal and/or bacteriostatic activity against the test organisms shown in Tables A and B. These organisms were chosen as being representative of commercially important pathogens affecting animal agriculture. The antibiotic chlortetracycline was chosen as a positive control, since it has a broad spectrum of activity against a large number of organisms, and its activity can be used for comparative purposes.
(§3) Basic test formulations of the product of Examples I, II, III, and of chlortetracycline were prepared by dissolving 16 mg (0.016 g) in 2.0 ml of stock emulsifier solution (0.25% Triton X-155 in acetone by volume) and making each solution up to 50 ml with deionized water. The concentration of the test compound in the basic formulation was 320 ppm. Lower concentrations of the test compound were obtained by diluting the basic formulation with a 4% solution of the stock emulsifier in deionized water so that each dilution in the series differed only in test compound content.
(§4) Nutrient-tryptic soy agar (NTA) consisting of 2.0% Difco Bactoagar 0.8% nutrient broth (Difco), and 0.5% tryptic soy broth (Difco) was prepared and sterilized by autoclaving. A 2 ml aliquot of each test formulation was added to 8 ml of molten NTA. This mixture was then plated in a sterile polystyrene petri dish (100 × 15 mm). After the agar was set, suspensions of each of the test organisms were simultaneously streaked onto the surface of the agar. The inoculated plates were incubated for 48 hr at 28°C. The inhibition of growth of each organism was rated by visual comparison with the organism developing on non-treated agar. Growth inhibition reported as per cent control was rated in three categories as follows: 0% control, growth equivalent to that on non-treated agar; 50% control, sparse development and separated colonies; 100% control, no visible growth or development of colonies.
(§5) Test formulations of the product of Example IV were examined for bactericidal and/or bacteriostatic activity against the test organisms shown in Table B using the Bactericide Test described in Example V. The inhibition of organism growth with each diluted test formulation was rated visually by comparison with the organism developing on a non-treated control agar plate. Growth inhibition reported as per cent control was rated in three categories as follows: 0% control, growth equivalent to that on non-treated agar; 50% control is sparse development and separated colonies; and 100% control, development of individual colonies was not apparent.

Streptococcus group E = test: Bactericide test, Streptococcus group E (agar streak plate); assay type: cell-based
From the text: as §2, §3, §4

Streptococcus agalactiae = test: Bactericide test, Streptococcus agalactiae (agar streak plate); assay type: cell-based
From the text: as §2, §3, §4

Streptococcus faecalis = test: Bactericide test, Streptococcus faecalis (agar streak plate); assay type: cell-based
From the text: as §2, §3, §4, §5

Salmonella gallinarum = test: Bactericide test, Salmonella gallinarum (agar streak plate); assay type: cell-based
From the text: as §2, §3, §4, §5

[2] = system: Bordetella bronchiseptica; test: Bactericide test, Bordetella bronchiseptica (agar streak plate); assay type: cell-based
From the text: as §2, §3, §4

[3] = system: Erysipelothrix rhusiopathiae; test: Bactericide test, Erysipelothrix rhusiopathiae (agar streak plate); assay type: cell-based
From the text: as §2, §3, §4

Vibrio coli = test: Bactericide test, Vibrio coli (agar streak plate); assay type: cell-based
From the text: as §2, §3, §4

Salmonella typhimurium = test: Bactericide test, Salmonella typhimurium (agar streak plate); assay type: cell-based
From the text: as §2, §3, §4

[4] = Growth promotion in chicks, Example XII first set (Table VI); assay type: in vivo, broiler cross chicks; conditions: for Average 4 Week Performance: Feed Efficiency / Average 4 Week Performance: Gain / Improved Response Over Basal Ration: Feed Efficiency / Improved Response Over Basal Ration: Gain: 25 g/T in basal ration, 4 weeks; for growth rate / feed efficiency, production parameters (in words): 25 g/T, first set of tests
From the text: This example compares growth promotion activity of the product of Example I with other growth promotants at a concentration of 25 g/T in the Basal Ration described in Example VII. The other growth promotants include the product described in Example I of U.S. Pat. No. 3,542,784 -- Burch and quinoxaline-1,4-dioxide. Day old broiler cross chicks were weight equalized into groups of eight chicks each, and four replicates of eight chicks each were fed the experimental rations over a 4 week period. […]

[5] = Growth promotion in chicks, Example XII repeat (Table VII); assay type: in vivo, broiler cross chicks; conditions: for growth rate / feed efficiency, production parameters (in words): 25 g/T, second set of tests
From the text: as §1
The growth promotion tests described in Example X were repeated with the additional testing the products of Examples II and III.

Staphylococcus aureus = test: Bactericide test, Staphylococcus aureus (agar streak plate); assay type: cell-based
From the text: as §2, §3, §4, §5

[6] = Growth promotion in chicks at low feed levels, Example VIII (Table II); assay type: in vivo, broiler cross chicks; conditions: 10 g/T in basal ration; 4 weeks
From the text: Day old broiler cross chicks were weight equalized into groups of eight chicks each and were placed in battery brooders. The 32 chick treatment groups (four replicates) were fed one of the five rations described below for a 4 week period. Weekly measurements of body weights and feed consumption were made by replicate, and these measurements used to calculate weight gain and feed efficiency.
The basal ration was the basal ration used in Example VII above. The remaining five rations were obtained by mixing the indicated quantities of bacitracin (4 g/T), chlortetracycline (10 g/T), product of Example I (10 g/T), and product of Example III of U.S. Pat. No. 3,542,784 -- Burch (10 g/T) as growth promotants with the basal ration.

[7] = 25 g/T in basal ration, 4 weeks
[8] = 100% inhibition at lower concentrations

Compound: 2-[2-(5-nitro-2-furyl)vinyl]-4-(o-hydroxyanilino)quinazoline [Example III]
- Average 4 Week Performance: Feed Efficiency [1, 7]: 1.503
- Average 4 Week Performance: Gain [1, 7]: 812.7 g
- Improved Response Over Basal Ration: Feed Efficiency [1, 7]: +3.2%
- Improved Response Over Basal Ration: Gain [1, 7]: +6.2%
- % Inhibition (Salmonella cholerasuis; 0.125 ppm): 0%
- % Inhibition (Salmonella cholerasuis; 0.25 ppm): 0%
- % Inhibition (Salmonella cholerasuis; 0.5 ppm): 0%
- % Inhibition (Salmonella cholerasuis; 1 ppm): 0%
- % Inhibition (Salmonella cholerasuis; 2 ppm): 0%
- % Inhibition (Salmonella cholerasuis; 16 ppm): 100%
- % Inhibition (Salmonella cholerasuis; 32 ppm): 100%
- % Inhibition (Salmonella cholerasuis; 64 ppm): 100%
- % Inhibition (Streptococcus group E; 0.125 ppm): 100%
- % Inhibition (Streptococcus group E; 0.25 ppm): 100%
- % Inhibition (Streptococcus group E; 0.5 ppm): 100%
- % Inhibition (Streptococcus group E; 1 ppm): 100%
- % Inhibition (Streptococcus group E; 2 ppm): 100%
- % Inhibition (Streptococcus group E; 4 ppm): 100%
- % Inhibition (Streptococcus group E; 8 ppm): 100%
- % Inhibition (Streptococcus group E; 16 ppm): 100%
- % Inhibition (Streptococcus group E; 32 ppm): 100%
- % Inhibition (Streptococcus group E; 64 ppm): 100%
- effectiveness compared with chlortetracycline (in words) (Streptococcus group E; [8]): considerably more effective
- % Inhibition (Streptococcus agalactiae; 0.125 ppm): 100%
- % Inhibition (Streptococcus agalactiae; 0.25 ppm): 100%
- % Inhibition (Streptococcus agalactiae; 0.5 ppm): 100%
- % Inhibition (Streptococcus agalactiae; 1 ppm): 100%
- % Inhibition (Streptococcus agalactiae; 2 ppm): 100%
- % Inhibition (Streptococcus agalactiae; 4 ppm): 100%
- % Inhibition (Streptococcus agalactiae; 8 ppm): 100%
- % Inhibition (Streptococcus agalactiae; 16 ppm): 100%
- % Inhibition (Streptococcus agalactiae; 32 ppm): 100%
- % Inhibition (Streptococcus agalactiae; 64 ppm): 100%
- effectiveness compared with chlortetracycline (in words) (Streptococcus agalactiae; [8]): considerably more effective
- % Inhibition (Streptococcus faecalis; 0.125 ppm): 0%
- % Inhibition (Streptococcus faecalis; 0.25 ppm): 0%
- effectiveness compared with chlortetracycline (in words) (Streptococcus faecalis; [8]): considerably more effective
- % Inhibition (Salmonella gallinarum; 0.125 ppm): 0%
- % Inhibition (Salmonella gallinarum; 0.25 ppm): 0%
- % Inhibition (Salmonella gallinarum; 0.5 ppm): 0%
- % Inhibition (Salmonella gallinarum; 1 ppm): 0%
- % Inhibition (Salmonella gallinarum; 2 ppm): 0%
- % Inhibition (Salmonella gallinarum; 4 ppm): 50%
- % Inhibition (Salmonella gallinarum; 8 ppm): 50%
- % Inhibition (Salmonella gallinarum; 16 ppm): 100%
- % Inhibition (Salmonella gallinarum; 32 ppm): 100%
- % Inhibition (Salmonella gallinarum; 64 ppm): 100%
- % Inhibition ([2]; 0.125 ppm): 100%
- % Inhibition ([2]; 0.25 ppm): 100%
- % Inhibition ([2]; 0.5 ppm): 100%
- % Inhibition ([2]; 1 ppm): 100%
- % Inhibition ([2]; 2 ppm): 100%
- % Inhibition ([2]; 4 ppm): 100%
- % Inhibition ([2]; 8 ppm): 100%
- % Inhibition ([2]; 16 ppm): 100%
- % Inhibition ([2]; 32 ppm): 100%
- % Inhibition ([2]; 64 ppm): 100%
- effectiveness compared with chlortetracycline (in words) [2, 8]: considerably more effective
- % Inhibition ([3]; 1 ppm): 100%
- % Inhibition ([3]; 2 ppm): 100%
- % Inhibition ([3]; 4 ppm): 100%
- % Inhibition ([3]; 8 ppm): 100%
- % Inhibition ([3]; 16 ppm): 100%
- % Inhibition ([3]; 32 ppm): 100%
- % Inhibition ([3]; 64 ppm): 100%
- effectiveness compared with chlortetracycline (in words) [3, 8]: considerably more effective
- % Inhibition (Vibrio coli; 0.125 ppm): 100%
- % Inhibition (Vibrio coli; 0.25 ppm): 100%
- % Inhibition (Vibrio coli; 0.5 ppm): 100%
- % Inhibition (Vibrio coli; 1 ppm): 100%
- % Inhibition (Vibrio coli; 2 ppm): 100%
- % Inhibition (Vibrio coli; 4 ppm): 100%
- % Inhibition (Vibrio coli; 8 ppm): 100%
- % Inhibition (Vibrio coli; 16 ppm): 100%
- % Inhibition (Vibrio coli; 32 ppm): 100%
- % Inhibition (Vibrio coli; 64 ppm): 100%
- effectiveness compared with chlortetracycline (in words) (Vibrio coli; [8]): considerably more effective
- % Inhibition (Salmonella typhimurium; 0.125 ppm): 0%
- % Inhibition (Salmonella typhimurium; 0.25 ppm): 0%
- % Inhibition (Salmonella typhimurium; 0.5 ppm): 0%
- % Inhibition (Salmonella typhimurium; 1 ppm): 0%
- % Inhibition (Salmonella typhimurium; 2 ppm): 0%
- % Inhibition (Salmonella typhimurium; 4 ppm): 0%
- % Inhibition (Salmonella typhimurium; 8 ppm): 0%
- % Inhibition (Salmonella typhimurium; 16 ppm): 0%
- % Inhibition (Salmonella typhimurium; 32 ppm): 0%
- % Inhibition (Salmonella typhimurium; 64 ppm): 0%
- Average 4 Week Performance: Feed Efficiency [4]: 1.597
- Average 4 Week Performance: Gain [4]: 766.9 g
- Improved Response Over Basal Ration: Feed Efficiency [4]: +2.3%
- Improved Response Over Basal Ration: Gain [4]: +3.1%
- growth rate / feed efficiency, production parameters (in words) [4]: moderate improvements
- Average 4 Week Performance: Feed Efficiency [5, 7]: 1.669
- Average 4 Week Performance: Gain [5, 7]: 723.7 g
- Improved Response Over Basal Ration: Feed Efficiency [5, 7]: +6.5%
- Improved Response Over Basal Ration: Gain [5, 7]: +6.0%
- growth rate / feed efficiency, production parameters (in words) [5]: more substantial response
- % Inhibition (Staphylococcus aureus; 0.125 ppm): 0%
- % Inhibition (Staphylococcus aureus; 0.25 ppm): 0%
- % Inhibition (Staphylococcus aureus; 0.5 ppm): 0%
- % Inhibition (Staphylococcus aureus; 1 ppm): 0%
- % Inhibition (Staphylococcus aureus; 2 ppm): 0%
- % Inhibition (Staphylococcus aureus; 4 ppm): 0%
- % Inhibition (Staphylococcus aureus; 8 ppm): 0%
- % Inhibition (Staphylococcus aureus; 16 ppm): 0%
- % Inhibition (Staphylococcus aureus; 32 ppm): 0%
- % Inhibition (Staphylococcus aureus; 64 ppm): 0%

Compound: O=[N+]([O-])c1ccc(-c2nc(Nc3ccc(O)cc3)c3ccccc3n2)o1 [2-(5-nitro-2-furyl)-4-(p-hydroxyanilino)quinazoline, reference compound]
- effect on feed efficiency (in words) ([1]; 25 g/T): slight, if any, effect on feed efficiency
- growth response (in words) ([1]; 25 g/T): appeared to give a growth response
- Average 4 Week Performance: Feed Efficiency [6]: 1.726
- Average 4 Week Performance: Gain [6]: 723.1 g
- Improved Response Over Basal Ration: Feed Efficiency [6]: +1.9%
- Improved Response Over Basal Ration: Gain [6]: +0.4%
- Average 4 Week Performance: Feed Efficiency [4]: 1.675
- Average 4 Week Performance: Gain [4]: 736.9 g
- Improved Response Over Basal Ration: Feed Efficiency [4]: -2.5%
- Improved Response Over Basal Ration: Gain [4]: -1.0%
- growth rate / feed efficiency, production parameters (in words) [4]: essentially no effect on growth rate or feed efficiency
- growth rate / feed efficiency, production parameters (in words) [5]: essentially no effect on growth rate or feed efficiency

Source: US3970648A, “2-[2-(5-Nitro-2-furyl)vinyl]-4-(anilino)quinazolines” (Diamond Shamrock Corporation, priority 1974, dated 1976)
